Starred links: 1 amine or outer side, 2 acyl side, 3 side chain; linkers in the order of their positions; H or OH if unused. Non-standard residues stand in square brackets, D forms with d. Residues, ends and D or L forms follow the SMILES beside them. Groups on a side chain read outwards from the residue. *: point of attachment. dAla(N-(6-guanidinohexyl)) = C[C@@H](NCCCCCCNC(=N)N)C(=O)O; DOTA = O=C(O)CN1CCN(CC(=O)O)CCN(CC(=O)*)CCN(CC(=O)O)CC1; X2 = CC(=O)NCCCCNC(=N)NCCCCCCN([C@H](C)C(=O)[*:2])[*:1]; 2Nal = N[C@@H](Cc1ccc2ccccc2c1)C(=O)O; dNMeOrn = CN[C@H](CCCN)C(=O)O; 4Amb = NCc1ccc(C(=O)O)cc1
Tests used:
human CXCR4 (hCXCR4) [1] = target: T1, human CXCR4 (hCXCR4) (Homo sapiens (Human), UniProt P61073); test: Competition binding on Jurkat cells with [125I]FC-131 as radioligand; conditions: [125I]FC-131 radioligand, mean ± SD
T1 sequence (P61073 whole entry): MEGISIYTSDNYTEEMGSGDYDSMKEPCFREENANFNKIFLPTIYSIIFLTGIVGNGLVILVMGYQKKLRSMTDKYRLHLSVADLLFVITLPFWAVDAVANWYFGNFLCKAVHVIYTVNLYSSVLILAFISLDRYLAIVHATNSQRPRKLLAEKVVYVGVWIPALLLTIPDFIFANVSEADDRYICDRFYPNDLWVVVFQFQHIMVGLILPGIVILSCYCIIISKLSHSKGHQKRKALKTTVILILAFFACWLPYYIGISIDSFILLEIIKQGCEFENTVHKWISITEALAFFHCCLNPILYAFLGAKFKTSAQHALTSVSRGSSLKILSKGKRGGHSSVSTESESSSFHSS
Procedure: (§1) For the determination of hCXCR4-affinity, competition binding experiments were performed using Jurkat cells and [^125I]FC131 or [^125I]R1 as radioligand. Affinity to mCXCR4 and rCXCR4 was determined using Eμ-Myc1080 mouse B-cell lyphoma cells ^57 or C6 rat glioma cells, respectively, and [^125I]R1 as the radioligand.
(§2) For IC50 determination using Jurkat or Eμ-Myc1080 cells, samples containing 2×10^5 cells (or 4×10^5 cells; exact cell number used in the respective evaluations is given in the results section) in Hank's balanced salt solution (HBSS)/1% Bovine Serum Albumin (BSA) were incubated with 100.000 cpm of the respective radioligand (approx. 0.1 nM) in the presence of increasing concentrations (10^−11 to 10^−5 M) of the respective peptide of interest (n=3 per concentration). The total sample volume was 250 μL. After incubation at room temperature (RT) for 120 min with gentle agitation (200 mot/min), the tubes were centrifuged (5 min, 450g, Megafuge 1.0, Heraeus Thermo Scientific) and the supernatant was carefully removed. After washing twice with 400 μL of cold HBSS, the amount of cell-bound radioligand was quantified using a […]-counter.
(§3) IC50 values were calculated using PRISM 6 software (Graph Pad Software, San Diego, CA) using a three-parameter sigmoidal dose response curve fit.

human CXCR4 (hCXCR4) [2] = target: T1, human CXCR4 (hCXCR4); test: Competition binding on Jurkat cells with [125I]R1 as radioligand; conditions: 200.000 cells/sample, [125I]R1 radioligand, mean ± SD
Procedure: as §1, §2, §3

mouse CXCR4 (mCXCR4) = mouse CXCR4 (mCXCR4) (Mus musculus (Mouse), UniProt P70658); test: Competition binding on Eμ-Myc1080 mouse B-cell lymphoma cells with [125I]R1 as radioligand; conditions: 200.000 cells/sample, [125I]R1 radioligand, mean ± SD
Sequence of mouse CXCR4 (mCXCR4) (P70658 whole entry): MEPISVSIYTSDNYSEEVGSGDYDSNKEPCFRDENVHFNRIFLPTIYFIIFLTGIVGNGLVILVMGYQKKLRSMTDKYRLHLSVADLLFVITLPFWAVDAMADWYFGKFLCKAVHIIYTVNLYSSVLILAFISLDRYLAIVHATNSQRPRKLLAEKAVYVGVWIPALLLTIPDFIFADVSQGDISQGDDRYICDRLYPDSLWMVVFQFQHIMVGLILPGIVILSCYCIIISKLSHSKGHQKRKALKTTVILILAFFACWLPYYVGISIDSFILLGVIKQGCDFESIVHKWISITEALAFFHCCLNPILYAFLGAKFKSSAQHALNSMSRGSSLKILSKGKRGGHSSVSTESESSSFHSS
Procedure: as §1, §2, §3

murine receptor (mCXCR4) = murine receptor (mCXCR4) (Mus musculus (Mouse), UniProt P70658); conditions: background statement; cited from earlier work
Sequence of murine receptor (mCXCR4) (P70658 whole entry): as above

Compound: cyclo[ya′(hexylguanidino)RNalc(-CH2—CO—NH—CH2-(m-aryl)-CH2—NH-^natCu-DOTA)] [Pc5d]
- IC50 (human CXCR4 (hCXCR4) [1]; 400.000 cells/sample): 78 ± 5 nM

Compound: C[C@@H]1C(=O)N[C@@H](CCCNC(=N)N)C(=O)N[C@@H](Cc2ccc3ccccc3c2)C(=O)NCC(=O)N[C@H](Cc2ccc(O)cc2)C(=O)N1CCCCCCNC(=N)NCCCCCCNC(=O)CCOCCOCCOCCOCCNC(=O)CCCCC[N+]1=C(/C=C/C=C/C=C2/N(C)c3ccc(S(=O)(=O)O)cc3C2(C)C)C(C)(C)c2cc(S(=O)(=O)[O-])ccc21 [P5g, Sulfo2-Cy5-PEG4-Hex-CPCR4.3]
- IC50 (human CXCR4 (hCXCR4) [1]; 200.000 cells/sample): 40 ± 5 nM
- IC50 (human CXCR4 (hCXCR4) [2]): 91 ± 49 nM
- IC50 (mouse CXCR4 (mCXCR4)): 63 ± 23 nM

Compound: CN1C(=O)[C@@H](Cc2ccc(O)cc2)NC(=O)CNC(=O)[C@H](Cc2ccc3ccccc3c2)NC(=O)[C@H](CCCN=C(N)N)NC(=O)[C@H]1CCCNC(=O)c1ccc(CNC(=O)CN2CCN(CC(=O)[O-])CCN(CC(=O)[O-])CCN(CC(=O)[O-])CC2)cc1.[68Ga+3] [[^68Ga]pentixafor, cyclo(D-Tyr^1-D-[NMe]Orn^2(AMBS-DOTA)-Arg^3-Nal^4-Gly^5)] (cyclo([2Nal]G[dY][dNMeOrn]([4Amb-DOTA])R))
- affinity to mCXCR4 (in words) (murine receptor (mCXCR4)): virtually no affinity

Compound: C[C@@H]1C(=O)N[C@@H](CCCNC(=N)N)C(=O)N[C@@H](Cc2ccc3ccccc3c2)C(=O)NCC(=O)N[C@H](Cc2ccc(O)cc2)C(=O)N1CCCCCCNC(=N)NCCCCCCNC(=O)CCCCC[N+]1=C(/C=C/C=C/C=C2/N(C)c3ccc(S(=O)(=O)O)cc3C2(C)C)C(C)(C)c2cc(S(=O)(=O)[O-])ccc21 [P5e, Sulfo2-Cy5-Hex-CPCR4.3]
- IC50 (human CXCR4 (hCXCR4) [2]): 156 ± 11 nM
- IC50 (mouse CXCR4 (mCXCR4)): 156 ± 7 nM

Compound: cyclo[ya′(hexyluanidino)RNalc(-CH2—CO—NH—CH2-(m-aryl)-CH2—NH-^natGa-DOTA)] [Pc5b]
- IC50 (human CXCR4 (hCXCR4) [1]; 400.000 cells/sample): 31 ± 3 nM
- IC50 (human CXCR4 (hCXCR4) [2]): 64 ± 29 nM
- IC50 (mouse CXCR4 (mCXCR4)): 63 ± 19 nM

Compound: C[C@@H]1C(=O)N[C@@H](CCCNC(=N)N)C(=O)N[C@@H](Cc2ccc3ccccc3c2)C(=O)NCC(=O)N[C@H](Cc2ccc(O)cc2)C(=O)N1CCCCCCNC(=N)NCCCCCCNC(=O)CN1CCN(CC(=O)O)CCN(CC(=O)O)CCN(CC(=O)O)CC1 (natGa complex, metal not drawn) [P5c]
- IC50 (human CXCR4 (hCXCR4) [2]): 13 ± 2 nM
- IC50 (mouse CXCR4 (mCXCR4)): 12.7 ± 4.6 nM

Compound: C[C@@H]1C(=O)N[C@@H](CCCNC(=N)N)C(=O)N[C@@H](Cc2ccc3ccccc3c2)C(=O)N[C@H](CS)C(=O)N[C@H](Cc2ccc(O)cc2)C(=O)N1CCCCCCNC(=N)N [Pc0, Cyclo(ya′(hexylguanidino)Rnalc)] (cyclo([2Nal][dC][dY][dAla(N-(6-guanidinohexyl))]R))
- IC50 (human CXCR4 (hCXCR4) [1]; 400.000 cells/sample): 35 ± 2 nM

Compound: C[C@@H]1C(=O)N[C@@H](CCCNC(=N)N)C(=O)N[C@@H](Cc2ccc3ccccc3c2)C(=O)NCC(=O)N[C@H](Cc2ccc(O)cc2)C(=O)N1CCCCCCNC(=N)NCCCCCCNC(=O)CN1CCN(CC(=O)O)CCN(CC(=O)O)CCN(CC(=O)O)CC1 (natLu complex, metal not drawn) [P5d]
- IC50 (mouse CXCR4 (mCXCR4)): 17 ± 3.3 nM

Compound: cyclo[ya′(hexylguanidino)RNalc(-CH2—CO—NH—CH2-(m-aryl)-CH2—NH-^natLu-DOTA)] [Pc5c]
- IC50 (human CXCR4 (hCXCR4) [1]; 400.000 cells/sample): 51 ± 4 nM

Compound: C[C@@H]1C(=O)N[C@@H](CCCNC(=N)N)C(=O)N[C@@H](Cc2ccc3ccccc3c2)C(=O)NCC(=O)N[C@H](Cc2ccc(O)cc2)C(=O)N1CCCCCCNC(=N)NCCCCCCNC(=O)CCCCCN1/C(=C/C=C/C=C/C2=[N+](CCCCCC(=O)NCCCCCCNC(=N)NCCCCCCN3C(=O)[C@@H](Cc4ccc(O)cc4)NC(=O)CNC(=O)[C@H](Cc4ccc5ccccc5c4)NC(=O)[C@H](CCCNC(=N)N)NC(=O)[C@H]3C)c3ccc(S(=O)(=O)[O-])cc3C2(C)C)C(C)(C)c2cc(S(=O)(=O)O)ccc21 [P5f, Sulfo2-Cy5(Hex-CPCR4.3)2]
- IC50 (human CXCR4 (hCXCR4) [2]): 115 ± 39 nM
- IC50 (mouse CXCR4 (mCXCR4)): 136 ± 26 nM

Compound: CC(=O)NCCCCNC(=N)NCCCCCCN1C(=O)[C@@H](Cc2ccc(O)cc2)NC(=O)CNC(=O)[C@H](Cc2ccc3ccccc3c2)NC(=O)[C@H](CCCNC(=N)N)NC(=O)[C@H]1C [P3, c(y-(NHex-Gua-But-Ac)a-R-Nal-G)] (cyclo([dY][X2]R[2Nal]G))
- IC50 (human CXCR4 (hCXCR4) [1]; 200.000 cells/sample): 2.1 ± 0.5 nM

Compound: cyclo(D-3-iodo-Tyr^1-D-[NMe]Orn^2(AMBS-DOTA)-Arg^3-Nal^4-Gly^5) [[^177Lu/^90Y]pentixather]
- affinity to mCXCR4 (in words) (murine receptor (mCXCR4)): virtually no affinity

Source: patent US20240293587A1, “CXCR4-TARGETED DIAGNOSTIC AND THERAPEUTIC AGENTS WITH REDUCED SPECIES SELECTIVITY” (TECHNISCHE UNIVERSITÄT MÜNCHEN, priority 2018, published 2024)
